Reference: ChEMBL document CHEMBL1126955, “Substituted thiopyrano[2,3,4-c,d]indoles as potent, selective, and orally active inhibitors of 5-lipoxygenase. Synthesis and biological evaluation of L-691,816” (J Med Chem, 1993)

How the values were obtained:
[1] = biological target: T1, Arachidonate 12-lipoxygenase (Sus scrofa, UniProt P16469); assay: Tested for inhibition against porcine 12-LO
T1 sequence (P16469 whole entry): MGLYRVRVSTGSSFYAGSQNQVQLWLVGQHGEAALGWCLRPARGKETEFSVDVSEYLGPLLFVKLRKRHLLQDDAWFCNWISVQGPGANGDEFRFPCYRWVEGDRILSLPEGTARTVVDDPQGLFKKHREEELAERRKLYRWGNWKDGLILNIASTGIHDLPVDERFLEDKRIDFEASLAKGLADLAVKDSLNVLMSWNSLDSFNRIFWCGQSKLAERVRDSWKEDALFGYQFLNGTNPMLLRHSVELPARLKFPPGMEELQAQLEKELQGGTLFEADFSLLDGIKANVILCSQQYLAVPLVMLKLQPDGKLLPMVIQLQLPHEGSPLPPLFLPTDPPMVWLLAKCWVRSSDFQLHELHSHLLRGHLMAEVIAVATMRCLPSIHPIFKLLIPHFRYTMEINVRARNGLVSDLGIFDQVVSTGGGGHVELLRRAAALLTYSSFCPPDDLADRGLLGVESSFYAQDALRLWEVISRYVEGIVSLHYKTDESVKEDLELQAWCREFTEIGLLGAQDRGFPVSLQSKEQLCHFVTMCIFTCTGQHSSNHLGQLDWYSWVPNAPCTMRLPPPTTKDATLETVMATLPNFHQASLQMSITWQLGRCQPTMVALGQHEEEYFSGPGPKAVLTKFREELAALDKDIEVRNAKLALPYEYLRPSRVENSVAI

[2] = biological target: T2, Polyunsaturated fatty acid 5-lipoxygenase (Homo sapiens, UniProt P09917); assay: Tested for inhibition of 5-HPETE production by human 5-LO
T2 sequence (P09917 whole entry): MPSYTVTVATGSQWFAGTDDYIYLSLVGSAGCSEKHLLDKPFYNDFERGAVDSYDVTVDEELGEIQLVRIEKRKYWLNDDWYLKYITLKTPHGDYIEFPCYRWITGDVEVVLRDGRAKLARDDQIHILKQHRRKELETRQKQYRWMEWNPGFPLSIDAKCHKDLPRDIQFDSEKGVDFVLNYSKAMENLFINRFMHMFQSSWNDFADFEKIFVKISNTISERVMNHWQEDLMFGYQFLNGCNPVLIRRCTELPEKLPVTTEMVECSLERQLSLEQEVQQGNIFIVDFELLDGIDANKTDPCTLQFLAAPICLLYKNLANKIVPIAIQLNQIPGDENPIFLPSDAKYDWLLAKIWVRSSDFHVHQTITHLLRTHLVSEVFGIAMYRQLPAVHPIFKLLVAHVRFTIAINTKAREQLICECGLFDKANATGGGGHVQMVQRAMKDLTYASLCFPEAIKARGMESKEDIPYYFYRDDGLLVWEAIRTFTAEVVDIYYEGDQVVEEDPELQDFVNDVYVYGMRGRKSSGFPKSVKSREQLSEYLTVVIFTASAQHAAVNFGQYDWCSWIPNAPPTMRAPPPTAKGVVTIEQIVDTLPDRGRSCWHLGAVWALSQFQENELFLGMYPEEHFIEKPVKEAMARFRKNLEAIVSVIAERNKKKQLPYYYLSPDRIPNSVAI

[3] = biological target: T3, Polyunsaturated fatty acid 5-lipoxygenase (Rattus norvegicus, UniProt P12527); assay: Tested for inhibition of 5-HPETE production by rat 5-LO; value ranges from 16-36 nM
T3 sequence (P12527 whole entry): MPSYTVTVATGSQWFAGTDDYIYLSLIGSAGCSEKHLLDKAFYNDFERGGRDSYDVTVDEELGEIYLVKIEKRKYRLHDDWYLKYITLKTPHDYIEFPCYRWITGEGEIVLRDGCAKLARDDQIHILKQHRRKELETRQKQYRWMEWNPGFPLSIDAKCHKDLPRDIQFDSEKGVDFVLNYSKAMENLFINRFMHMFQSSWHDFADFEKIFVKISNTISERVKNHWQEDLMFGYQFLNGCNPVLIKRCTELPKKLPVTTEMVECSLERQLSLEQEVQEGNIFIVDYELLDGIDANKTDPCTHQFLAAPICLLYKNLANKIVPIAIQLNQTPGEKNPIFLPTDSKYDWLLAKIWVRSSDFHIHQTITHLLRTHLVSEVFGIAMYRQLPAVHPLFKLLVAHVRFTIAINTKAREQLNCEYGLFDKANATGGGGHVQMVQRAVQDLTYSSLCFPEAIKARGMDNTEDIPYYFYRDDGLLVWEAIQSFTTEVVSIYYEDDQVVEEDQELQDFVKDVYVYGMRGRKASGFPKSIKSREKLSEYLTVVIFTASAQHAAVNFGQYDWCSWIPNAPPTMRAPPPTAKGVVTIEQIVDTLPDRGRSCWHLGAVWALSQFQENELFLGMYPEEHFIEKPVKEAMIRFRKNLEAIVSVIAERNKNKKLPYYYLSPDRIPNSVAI

[4] = biological target: T3, Polyunsaturated fatty acid 5-lipoxygenase; assay: In vitro test for inhibition of 5-lipoxygenase in cell-free preparations from rat PMN leukocytes
[5] = Peak concentration in rat plasma was determined; format: ADME, organism-based
[6] = Bioavailability in rat (dose 20 mg/kg p.o. in 1% methocel, and 5 mg/kg i.v. in PEG400); format: ADME, organism-based; settings: in vivo, po
[7] = Rate of enzyme inactivation for the compound was determined
[8] = biological target: T2, Polyunsaturated fatty acid 5-lipoxygenase; assay: In vitro inhibition of LTB4 biosynthesis in [Ca(2+)]-ionophore-activated human polymorphonuclear leukocytes; format: functional
Monkey [9] = assay: Changes in airway resistance after administration of 0.3 mg/kg in squirrel monkey; format: functional
Monkey [10] = assay: Changes in airway resistance after administration of 1 mg/kg in squirrel monkey; format: functional
Monkey [11] = assay: Changes in dynamic compliance after administration of 0.3 mg/kg in squirrel monkey; format: functional
Monkey [12] = assay: Changes in dynamic compliance after administration of 1 mg/kg in squirrel monkey; format: functional
[13] = biological target: Prostaglandin G/H synthase (cyclooxygenase) (Ovis aries) (UniProt P05979+P79208); assay: Tested for inhibition against ram seminal vesicle Prostaglandin G/H synthase at a concentration of 10 uM; format: tissue-based
Chain of Prostaglandin G/H synthase (cyclooxygenase) (Ovis aries) (P05979 whole entry, looked up): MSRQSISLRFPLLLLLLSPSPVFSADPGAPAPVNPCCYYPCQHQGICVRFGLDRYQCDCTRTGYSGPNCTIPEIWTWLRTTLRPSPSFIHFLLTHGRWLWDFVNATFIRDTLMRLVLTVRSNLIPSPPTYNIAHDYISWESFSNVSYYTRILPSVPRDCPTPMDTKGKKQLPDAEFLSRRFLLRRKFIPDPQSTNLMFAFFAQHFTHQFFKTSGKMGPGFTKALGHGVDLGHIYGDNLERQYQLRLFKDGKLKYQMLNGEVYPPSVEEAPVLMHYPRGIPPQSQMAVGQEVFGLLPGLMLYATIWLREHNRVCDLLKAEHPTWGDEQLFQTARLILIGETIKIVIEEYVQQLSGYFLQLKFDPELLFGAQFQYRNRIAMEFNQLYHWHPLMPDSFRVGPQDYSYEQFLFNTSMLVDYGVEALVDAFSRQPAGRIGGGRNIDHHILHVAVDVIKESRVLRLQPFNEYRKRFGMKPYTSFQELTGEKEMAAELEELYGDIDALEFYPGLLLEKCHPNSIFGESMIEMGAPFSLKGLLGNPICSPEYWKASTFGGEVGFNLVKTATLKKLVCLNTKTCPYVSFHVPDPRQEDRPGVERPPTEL
Chain of Prostaglandin G/H synthase (cyclooxygenase) (Ovis aries) (P79208 whole entry, looked up): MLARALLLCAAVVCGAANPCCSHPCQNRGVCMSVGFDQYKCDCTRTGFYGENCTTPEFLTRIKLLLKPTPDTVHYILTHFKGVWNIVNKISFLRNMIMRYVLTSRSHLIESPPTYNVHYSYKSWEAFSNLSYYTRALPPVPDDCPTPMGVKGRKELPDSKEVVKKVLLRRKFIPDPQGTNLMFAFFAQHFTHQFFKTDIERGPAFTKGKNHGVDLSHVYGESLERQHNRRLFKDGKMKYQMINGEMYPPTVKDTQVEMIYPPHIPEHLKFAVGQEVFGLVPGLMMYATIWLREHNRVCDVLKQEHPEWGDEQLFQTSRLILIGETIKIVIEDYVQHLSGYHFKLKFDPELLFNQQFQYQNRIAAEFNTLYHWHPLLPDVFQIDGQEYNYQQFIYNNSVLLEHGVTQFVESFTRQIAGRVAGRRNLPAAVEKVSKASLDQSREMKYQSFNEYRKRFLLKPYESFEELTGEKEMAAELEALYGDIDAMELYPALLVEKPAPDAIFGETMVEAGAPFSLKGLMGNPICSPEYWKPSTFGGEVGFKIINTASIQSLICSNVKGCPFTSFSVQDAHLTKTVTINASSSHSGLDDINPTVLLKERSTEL

Homo sapiens = species: Homo sapiens; assay: Tested for inhibition of leukotriene B4 synthesis in human PMN leukocytes at 5*10e5 cells/mL concentration; format: functional, cell-based
Rattus norvegicus [14] = species: Rattus norvegicus; assay: Tested for antigen-induced dyspnea in hyperreactive rat model (2 hours pretreatment); format: functional
Rattus norvegicus [15] = species: Rattus norvegicus; assay: Tested for inhibition of leukotriene B4 in rat pleurisy model (8 hours pretreatment); format: functional
Rattus norvegicus [16] = species: Rattus norvegicus; assay: Tested for ex-vivo inhibition of leukotriene B4 biosynthesis in rat whole blood; format: functional, organism-based
Rattus norvegicus [17] = species: Rattus norvegicus; assay: Tested for percent inhibition of dyspnea duration in hyperreactive rat model; format: functional
[18] = Maximum time taken for compound to reach peak concentration in rat plasma; format: ADME, organism-based
[19] = Maximum time taken for compound to reach peak concentration in rat plasma; value ranges from 1-2 hrs; format: ADME, organism-based
Monkey [20] = assay: Changes in dynamic compliance after administration of 0.3 mg/kg in squirrel monkey (not significant); format: functional
Rattus norvegicus [21] = species: Rattus norvegicus; assay: Tested for antigen-induced dyspnea in hyperreactive rat model (2 hr pretreatment); format: functional

Structure (SMILES): CC1Cc2c(OCc3ccc(-c4ccccc4)cn3)ccc3c2c(c(CC(C)(C)Cc2nnn[nH]2)n3Cc2ccc(Cl)cc2)S1 (stereo not drawn)
- IC50 [1]: 2800 nM
- IC50 [2]: 75 nM
- IC50 [3]: 16 nM
- IC50 [4]: 17 nM
- Cmax [5]: 10 µM
- bioavailability [6]: 40%
- kinact [7]: 0.009 s⁻¹
- IC50 [8]: 8 nM
- RL (Monkey [9]): 17.5%
- RL (Monkey [10]): 12.6%
- Cdyn (Monkey [11]): -11.2%
- Cdyn (Monkey [12]): -9.2%
- inhibition [13]: 59%
- IC50 (Homo sapiens): 10 nM
- ED50 (Rattus norvegicus [14]): 0.1 mg/kg
- ED50 (Rattus norvegicus [15]): 1.9 mg/kg
- IC50 (Rattus norvegicus [16]): 1500 nM
- Inhibition (Rattus norvegicus [17]): 70%
- Tmax [18]: 6 h

Structure (SMILES): CC1Cc2c(CCc3ccc(-c4ccccc4)cn3)ccc3c2c(c(CC(C)(C)Cc2nnn[nH]2)n3Cc2ccc(Cl)cc2)S1 (stereo not drawn)
- IC50 [4]: 16 nM
- Cmax [5]: 8 µM
- bioavailability [6]: 36%
- Tmax [19]: 1 h
- IC50 [8]: 3 nM
- Inhibition (Rattus norvegicus [17]): 37%

Structure (SMILES): CC(C)(C)Sc1c(CC(C)(C)C(=O)O)n(Cc2ccc(Cl)cc2)c2ccc(OCc3ccc4ccccc4n3)cc12 [QUIFLAPON]
- RL (Monkey [9]): 44%
- Cdyn (Monkey [20]): 46%
- ED50 (Rattus norvegicus [21]): 0.16 mg/kg
